Assay results: patent publication US8765775B2, “Anti-angiogenic compounds” (Universitaet Zuerich, priority 2008, dated 2014)
Where “and” joins values, the source holds several entries; their conditions need not be identical. Equal values may be shown once.

Legend:
EphB4 [1] = biological target: T1, EphB4 (Homo sapiens, UniProt P54760); test: Panvera Z'Lyte FRET-based enzymatic assay; settings: for Inhibitory activity in the enzymatic assay (in words): Z'Lyte
T1 sequence (P54760 16-987): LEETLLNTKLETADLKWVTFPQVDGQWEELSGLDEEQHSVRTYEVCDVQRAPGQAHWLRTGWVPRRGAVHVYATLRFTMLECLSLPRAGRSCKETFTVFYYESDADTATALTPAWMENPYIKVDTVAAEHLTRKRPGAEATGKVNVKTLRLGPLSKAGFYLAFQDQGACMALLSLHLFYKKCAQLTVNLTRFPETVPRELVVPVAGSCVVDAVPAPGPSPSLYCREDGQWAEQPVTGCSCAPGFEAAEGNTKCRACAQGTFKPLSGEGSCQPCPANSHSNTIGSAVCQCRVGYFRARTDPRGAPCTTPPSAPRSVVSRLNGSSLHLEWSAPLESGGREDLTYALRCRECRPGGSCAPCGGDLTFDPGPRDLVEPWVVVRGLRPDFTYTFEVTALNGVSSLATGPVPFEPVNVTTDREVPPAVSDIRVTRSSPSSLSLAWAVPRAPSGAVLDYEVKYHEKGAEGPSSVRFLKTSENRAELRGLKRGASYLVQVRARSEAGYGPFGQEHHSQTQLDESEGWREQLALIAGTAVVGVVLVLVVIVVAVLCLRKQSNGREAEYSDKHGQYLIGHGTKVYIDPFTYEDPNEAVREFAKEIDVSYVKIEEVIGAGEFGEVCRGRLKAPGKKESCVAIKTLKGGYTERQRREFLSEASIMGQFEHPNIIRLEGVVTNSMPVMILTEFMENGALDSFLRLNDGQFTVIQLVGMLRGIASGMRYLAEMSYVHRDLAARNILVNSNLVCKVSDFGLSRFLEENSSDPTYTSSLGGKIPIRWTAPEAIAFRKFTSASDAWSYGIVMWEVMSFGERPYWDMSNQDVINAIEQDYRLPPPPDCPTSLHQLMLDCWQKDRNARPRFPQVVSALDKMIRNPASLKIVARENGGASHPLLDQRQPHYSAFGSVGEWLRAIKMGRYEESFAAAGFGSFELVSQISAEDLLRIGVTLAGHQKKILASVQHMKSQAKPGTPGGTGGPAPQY
Protocol: In vitro kinase activity was measured using the Panvera Z'Lyte Tyr2 kinase assay PV3191 (Invitrogen, USA), according to the manufacturer's instructions. […] The reaction is performed at room temperature for 1 hour.

EphB4 [2] = biological target: T1, EphB4; test: IC50 and % inhibition (Table 3); assay type: biochemical; settings: for inhibition at 20 µM / inhibition at 10 µM: read-out: % inhibition at indicated concentration C; for IC50: Table 3, repeated determinations, read-out: IC50
[3] = biological target: T2, myc-tagged full-length human EphB4 (Homo sapiens, UniProt P54760); test: Phospho-EphB4 ELISA of CHO cells (EphB4 autophosphorylation); assay type: cell-based; settings: in CHO cells, at 20 μM
T2 construct: stably transfected with myc-tagged full-length human EphB4; expressed in transfected cells; host or cells: CHO-FRT cells (Flip-In System, Invitrogen)
T2 sequence (P54760 16-987): T1 sequence (P54760 16-987)
Protocol: Phospho-EphB4 ELISA of CHO cells. The ELISA assay was performed as follows: Chinese hamster ovary (CHO)-FRT cells are stably transfected with myc-tagged full-length human EphB4 according to the Flip-In System protocol (Invitrogen, USA). […] Cells of this clone are preincubated with EphB4 inhibitors for 15 minutes and then stimulated with preclustered ephrinB2-Fc for 45 minutes at 37° C. Cells are lysed, transferred to a 96-well plate coated with anti-myc antibody and incubated overnight at 4° C. After incubation with anti-phosphotyrosine antibody, reactions are developed with BM Blue peroxydase substrate, and autophosphorylation of EphB4 is quantified by measuring absorption at 450 nm.

SMILES: CCCCn1c(-c2ccccc2)c(Br)n2c3c(=O)[nH]c(=O)n(C)c3nc12 [Compound 38, 6-Bromo-8-butyl-1-methyl-7-phenyl-1H-imidazo[2,1-f]purine-2,4(3H,8H)-dione]
- melting point: 302 to 304 °C

SMILES: O=c1[nH]c(=O)n(Cc2ccccc2)c2nc3[nH]c(-c4ccccc4)cn3c12 [Compound 18, 1-Benzyl-7-phenyl-1H-imidazo[2,1-f]purine-2,4(3H,9H)-dione]
- melting point: 393 to 395 °C

SMILES: CC1(C)Cc2c(sc(NC(=O)Nc3ccccc3)c2C(N)=O)CO1 [Compound 9, reference compound]
- IC50 (EphB4 [1]; read-out: Enzymatic assays IC50 Z′Lyte, FRET-based, 10 μM ATP, 1% DMSO, room temperature 1 hour): 76 µM

SMILES: Cn1c(-c2ccccc2)cn2c3c(=O)[nH]c(=O)n(Cc4ccccc4)c3nc12 [Compound 19, 1-Benzyl-8-methyl-7-phenyl-1H-imidazo[2,1-f]purine-2,4(3H,8H)-dione]
- melting point: 306 to 308 °C

SMILES: COc1ccccc1-n1c(-c2ccc(C(=O)O)cc2)cn2c3c(=O)[nH]c(=O)n(C)c3nc12 [Compound 44, 8-(2-Methoxyphenyl)-1-methyl-7-p-carboxyphenyl-1H-imidazo[2,1-f]purine-2,4(3H,8H)-dione]
- % inhibition at indicated concentration C (EphB4 [2]; C = 20 μM, 20 µM): 23% and 19% and 13%
- inhibition at 20 µM (EphB4 [2]; C = 20 μM): 12%

SMILES: COCCCn1c(-c2ccccc2)cn2c3c(=O)[nH]c(=O)n(C)c3nc12 [Compound 6]
- IC50 (EphB4 [1]): 50 µM
- Inhibitory activity in the enzymatic assay (in words) (EphB4 [1]): mid-micromolar range
- inhibition at 20 µM ([3]; read-out: Cell-based assay percent inhibition): 28%
- % inhibition at indicated concentration C (EphB4 [2]; C = 10 μM, 10 µM): 46%
- inhibition at 10 µM (EphB4 [2]; C = 10 μM): 49%

SMILES: COc1ccccc1-n1c(-c2ccc(F)cc2)cn2c3c(=O)[nH]c(=O)[nH]c3nc12 [Compound 30, 7-p-Fluorophenyl-8-(2-methoxyphenyl)-1H-imidazo[2,1-f]purine-2,4(3H,8H)-dione]
- IC50 (EphB4 [2]): 4.6 µM and 6.2 µM

SMILES: COc1ccc(-n2c(-c3ccc(F)cc3)cn3c4c(=O)[nH]c(=O)n(C)c4nc23)c(OC)c1 [Compound 16]
- % inhibition at indicated concentration C (EphB4 [2]; C = 10 μM, 10 µM): 50% and 28%

SMILES: COc1ccccc1-n1c(-c2ccc(C#N)cc2)cn2c3c(=O)[nH]c(=O)n(C)c3nc12 [Compound 28, 8-(2-Methoxyphenyl)-1-methyl-7-p-cyanophenyl-1H-imidazo[2,1-f]purine-2,4(3H,8H)-dione]
- melting point: 303 to 305 °C
- % inhibition at indicated concentration C (EphB4 [2]; C = 20 μM, 20 µM): 17%
- inhibition at 20 µM (EphB4 [2]; C = 20 μM): 13%

SMILES: COC(=O)Cn1c(=O)[nH]c(=O)c2c1nc1n(-c3ccccc3OC)c(-c3ccc(F)cc3)cn21 [Compound 32, 8-(2-Methoxyphenyl)-1-(methoxy-2-oxoethyl)-7-(p-Fluorophenyl)-1H-imidazo[2,1-f]purine-2,4(3H,8H)-dione]
- IC50 (EphB4 [2]): 9.5 µM and 8.9 µM

SMILES: COc1ccccc1-n1c(-c2ccc([N+](=O)[O-])cc2)cn2c3c(=O)[nH]c(=O)n(C)c3nc12 [Compound 27, 8-(2-Methoxyphenyl)-1-methyl-7-p-nitrophenyl-1H-imidazo[2,1-f]purine-2,4(3H,8H)-dione]
- melting point: 323 to 325 °C

SMILES: Cn1c(=O)[nH]c(=O)c2c1nc1n(CCCCO)c(-c3ccc(NCCCCO)cc3)cn21 [Compound 29]
- melting point: 205 to 207 °C
- % inhibition at indicated concentration C (EphB4 [2]; C = 20 μM, 20 µM): 50% and 62% and 37% and 34%

SMILES: CNc1ccc(-c2cn3c4c(=O)[nH]c(=O)n(Cc5ccccc5)c4nc3n2C)cc1 [Compound 20, 1-Benzyl-8-methyl-7-p-methylaminophenyl-1H-imidazo[2,1-f]purine-2,4(3H,8H)-dione]
- melting point: 288 to 290 °C

SMILES: O=c1[nH]c(=O)n(Cc2ccccc2)c2nc3n(-c4ccccc4)c(-c4ccc(F)cc4)c(Br)n3c12 [Compound 36, 1-Benzyl-6-bromo-7-p-fluorophenyl-8-phenyl-1H-imidazo[2,1-f]purine-2,4(3H,8H)-dione]
- melting point: 276 to 278 °C
- % inhibition at indicated concentration C (EphB4 [2]; C = 10 μM, 10 µM): 10% and 4%

SMILES: CCCn1c(-c2ccccc2)cn2c3c(=O)[nH]c(=O)n(C)c3nc12 [Compound 4]
- IC50 (EphB4 [1]): 1.9 µM
- Inhibitory activity in the enzymatic assay (in words) (EphB4 [1]): low-micromolar
- Cell-based assay percent inhibition [3]: neg.
- % inhibition at indicated concentration C (EphB4 [2]; C = 10 μM, 10 µM): 58% and 54%
- inhibition at 10 µM (EphB4 [2]; C = 10 μM): 62%
- IC50 (EphB4 [2]): 8 µM and 9 µM

SMILES: COc1ccccc1-n1c(-c2ccc(F)cc2)cn2c3c(=O)[nH]c(=O)n(Cc4ccccc4)c3nc12 [Compound 22, 1-Benzyl-7-p-fluorophenyl-8-(2-methoxyphenyl)-1H-imidazo[2,1-f]purine-2,4(3H,8H)-dione]
- melting point: 251 to 253 °C

SMILES: COc1ccccc1-n1c(-c2ccc(F)cc2)cn2c3c(=O)[nH]c(=O)n(CS(C)(=O)=O)c3nc12 [Compound 35, 8-(2-Methoxyphenyl)-1-(methylsulfonylmethyl)-7-(p-Fluorophenyl)-1H-imidazo[2,1-f]purine-2,4(3H,8H)-dione]
- IC50 (EphB4 [2]): 7.9 µM and 7.1 µM

SMILES: COc1ccccc1-n1c(-c2ccc(F)cc2)cn2c3c(=O)[nH]c(=O)n(CSC)c3nc12 [Compound 34, 8-(2-Methoxyphenyl)-1-(methylthiomethyl)-7-(p-Fluorophenyl)-1H-imidazo[2,1-f]purine-2,4(3H,8H)-dione]
- IC50 (EphB4 [2]): 5.1 µM and 6.4 µM

SMILES: COc1ccccc1-n1c(-c2ccccc2)c(C#N)n2c3c(=O)[nH]c(=O)n(C)c3nc12 [Compound 41, 6-Cyano-8-(2-methoxyphenyl)-1-methyl-7-phenyl-1H-imidazo[2,1-f]purine-2,4(3H,8H)-dione]
- % inhibition at indicated concentration C (EphB4 [2]; C = 20 μM, 20 µM): 30%
- inhibition at 20 µM (EphB4 [2]; C = 20 μM): 21%

SMILES: COc1ccccc1-n1c(-c2ccccc2)c(Br)n2c3c(=O)[nH]c(=O)n(C)c3nc12 [Compound 37, 6-Bromo-8-(2-methoxyphenyl)-1-methyl-7-phenyl-1H-imidazo[2,1-f]purine-2,4(3H,8H)-dione]
- melting point: 274 to 276 °C

SMILES: COc1ccc(OC)c(-n2c(-c3ccc(F)cc3)cn3c4c(=O)[nH]c(=O)n(C)c4nc23)c1 [Compound 17]
- % inhibition at indicated concentration C (EphB4 [2]; C = 10 μM, 10 µM): 62%
- inhibition at 10 µM (EphB4 [2]; C = 10 μM): 72%

SMILES: COc1ccccc1-n1c(-c2ccccc2)cn2c3c(=O)[nH]c(=O)n(Cc4ccccc4)c3nc12 [Compound 25, 1-Benzyl-8-(2-methoxyphenyl)-7-phenyl-1H-imidazo[2,1-f]purine-2,4(3H,8H)-dione]
- melting point: 301 to 303 °C
- % inhibition at indicated concentration C (EphB4 [2]; C = 10 μM, 10 µM): 11%
- inhibition at 10 µM (EphB4 [2]; C = 10 μM): 15%

SMILES: O=c1[nH]c(=O)n(Cc2ccccc2)c2nc3n(-c4ccccc4)c(-c4ccc(F)cc4)cn3c12 [Compound 21, 1-Benzyl-7-p-fluorophenyl-8-phenyl-1H-imidazo[2,1-f]purine-2,4(3H,8H)-dione]
- melting point: 250 to 252 °C
